Experimental data from patent publication US8822535B2 (priority 2005, dated 2014).
Several values for one entry are separate records, joined by “and”; a condition that tells them apart may be missing. Equal entries are not always repeated. Where two headings read alike, the source gives them in different places.

Tests used:
[1] = system: Drosophila melanogaster; test: Anoxia tolerance of Drosophila melanogaster after CO2 / H2S treatment; assay type: in vivo; settings: adult flies
Method: Adult flies were introduced into 35 mL tubes made of glass with a gas-tight rubber stopper (Balsh tubes). This was usually accomplished by anesthetizing flies with CO2, moving groups of flies to vials with food to recover for at least 2 hours, and then transferring them into the Balsh tube. To exchange the gaseous environment in the Balsh tube, two 18 gauge needles were inserted into the rubber stopper, and gas is blown into one of the needles at 100 mL/min. To prevent dessication, gasses were humidified by bubbling through 10 mL of water before passing it through the Balsch tube. The water in the bubbler is equilibrated with the gas for at least 20 minutes before starting the experiment.
For “stopped-flow” experiments, gas exchange proceeded for 60 minutes before sealing the tube. For “low-flow” experiments, gas flow continued throughout the experiment. CO2 was from the house source (100%), and anoxic environments were established by flushing out room air with 100% nitrogen (N2). Care was taken to prevent introduction of room air into the system while switching the atmosphere from CO2 to N2.
After anoxic treatment, oxygen was reintroduced into the Balsh tube by flushing with house air for 20 minutes. The rubber stopper was then removed and a food vial is inverted over the top of the Balsh tubes with Parafilm. […] Viability was scored at least 18 hours after the end of anoxic treatment. After two weeks, if the food vials contained larvae and/or pupae the flies were considered to be fertile.

[2] = system: mice; test: Cyanide exposure experiment in mice; assay type: in vivo, mouse; settings: 80 ppm in room air at room temperature
Method: To measure metabolic effects of HCN, mice were exposed to increasing concentrations of HCN starting at 1 ppm. Oxygen (O2) consumption, carbon dioxide (CO2) production, body core temperature (BCT) and behavior were measured or evaluated. […]. A metabolic effect is defined as a 10% change in less than 10 minutes in any of the assay values described above.

[3] = system: C. elegans nematodes; settings: in vivo
[4] = system: rats; test: Gas matrix: metabolic flexibility in altered gas environments, rats; assay type: in vivo, rat; settings: 0.03% in room air, ambient 7 to 10° C., 6-hour treatment
Method: (§1) Metabolic flexibility was evaluated in mice rats and dogs using altered gas environments. Three parameters were used to define this reduction in metabolism including changes in carbon dioxide production, oxygen consumption measured by respirometry, and core temperature as measured using telemetry. In experiments with mice and rats the animals were placed into sealed chambers with one gas import and one gas export. For dogs a mask was placed over the snout of the animal with two hoses (import and export) attached to the mask. The flow rate of gas for each of the animals mice—500 cc per minute, rats—2 liters per minute, and dogs 40 liters per minute. Each atmosphere was constructed from compressed gas by dilution into room air unless otherwise noted. For rat and mouse experiments the ambient temperature was 7 to 10° C. during exposure to the test gases. For dogs ambient temperature was room temperature (22° C.).
(§2) Evidence of depression in metabolic rate of greater than 5-fold as judged by carbon dioxide production or oxygen consumption during a 6-hour treatment is described by “Yes”; […]; “N/D” denotes experiments not done. The temperature drop in the dog experiment (Carbon dioxide+low oxygen+Helium) was approximately 1.5° C. over the course of 30 minutes of exposure. This drop in temperature was considered significant because the dog was 12 kg and no such temperature drop was seen during extensive baseline recording of the animal in room air.

[5] = system: mice; assay type: in vivo, mouse (C57Bl/6)
[6] = in vivo; cited from earlier work
[7] = system: dogs; test: Gas matrix: metabolic flexibility in altered gas environments, dogs; assay type: in vivo, dog; settings: 0.85% in room air, mask, room temperature (22° C.)
Method: as §1, §2

[8] = system: rats
Method: On the day of the experiment, catheters were surgically implanted into the right femoral artery and vein. Catheters exited behind scapulae. Rats were administered buprenorphine post-surgically and allowed to recover.
The anti-coagulant drug heparin (80-100 units) was administered intravenously as a bolus to decrease the clotting ability of the blood and enhance hemorrhage. […] Catheters, temperature probe, and gas sampling tube were passed through a hole drilled in the middle of the lid. Temperature was maintained at approximately isothermal temperature (27+/−2° C.).
The hemorrhage model was defined by the removal of 60% of total body blood over the course of a 40 minute bleed. Blood was removed using a peristaltic pump.
Blood was removed at the calculated rate via the femoral catheter artery. Blood was weighed as it was removed.
Metabolic rate was determined by measuring CO2 production (Licor Li7000). Temperature and CO2 data were collected (ADI PowerLab). Arterial blood values were measured (I-Stat blood chemistry analyzer). Following the bleed, animals were placed in a cage for three hours and observed. At the end of three hours, surviving rats were given lactated ringers ad libitum. For non-surviving animals, time of death was declared when animals stopped breathing and CO2 production ceased. […]

[9] = system: zebrafish (D. rerio) embryos; test: Zebrafish embryo heart rate screening assay; assay type: in vivo
Description: These embryos are transparent, allowing one to view, using a dissecting microscope with a 4-20 times power lense, the heart beat and resultant blood flow into the main vessel along the back and into the tail. Heart rate in these animals is an indicator of the metabolic activity of the organism, such that a reduction in the heart rate signifies a reduction in metabolism. Embryos were dissected from their egg casings and distributed five per well in flat bottomed polystyrene tissue culture plates and incubated in 1 mL of standard fish water. The fishwater is composed of 1 teaspoon Instant Ocean (artificial sea water mixture, Aquarium Systems, Inc.) per 5 gallons. Calcium chloride is adjusted to 150 ppm and sodium bicarbonate to ˜100 ppm.

[10] = system: rats; assay type: in vivo, rat
Method: After surgical implantation of catheters and recovery, blood was removed from conscious animals in 40 minutes. […] Three hours after the end of the bleed, surviving animals were given one shed-blood volume of lactated ringers solution intravenously.

[11] = system: mice; test: Gas matrix: metabolic flexibility in altered gas environments, mice; assay type: in vivo, mouse; settings: 0.01% in room air, ambient 7 to 10° C., 6-hour treatment
Method: as §1, §2

## S [H2S, hydrogen sulfide]
[1]; 50 ppm H2S in room air prior to 18.5 h anoxia
  survival: 25%
[1]; 50 ppm H2S present in the CO2 pretreatment and removed as anoxia is established, 20 h
  survival: 35%
[1]; CO2 10 min, H2S/CO2 10 min, N2/H2S 10 min, then N2, 15 h anoxic exposure, low-flow
  survival: 50%
[2]
  core temperature: approximately 28 °C
[3]
  lethality: considerable lethality
  progeny: same number of progeny
[4]
  depression in metabolic rate, Rat: Yes 0.03% (Evidence of depression in metabolic rate of greater than 5-fold as judged by carbon dioxide production or oxygen consumption during a 6-hour treatment is described by “Yes”)
[5]; 150 ppm H2S 20 minutes, then 5% O2 for several hours (FIG. 25)
  drop in CO2 production during hypoxia from pre-exposure level: approximately 50 fold
[5]; 150 ppm H2S 20 minutes, then several hours of 5% O2, pre-exposure approximately 2500 ppm
  CO2 output: approximately 50 ppm
[5]; 150 ppm H2S prior to oxygen tension reduced to between 5% and 2.5% (FIG. 24)
  survival time at lethal oxygen tensions: at least 60 minutes
[5]; pre-treatment with H2S, new lower baseline
  reduction in CO2 evolution: 50-60%
[6]
  LD50: approximately 700 ppm
  adverse effects, gross and histopathological examination: no observed adverse effect
  behavioral toxicity: Significant reductions in motor activity, water maze performance and body temperature
  perinatal toxicity: no neuropathological effects
  tolerability: innocuous
[7]
  depression in metabolic rate, Dog: No 0.85% (“No” (reduction or less than a 5-fold reduction in these values is described as such)
[8]; 2000 ppm H2S in room air at 20 minutes of the 40 minute bleed, generally 1 to 2 minutes, 7 out of 8
  survival of the hemorrhage: 88%
[8]; rat, in vivo
  signs during exposure: apnea and dystonia
[9]; 24 hours after initial exposure, solution replaced with normal fishwater after five hours
  heart rate after recovery: 160-200 beats per minute
[9]; 48 hour old embryos, hydrogen sulfide-containing fishwater (approximately 0.1 molar), 2-3 hours following exposure
  heart beats: 60-80 beats per minute
[10]; 300 ppm H2S
  rats surviving hemorrhage and 3 hour shock period: 6/7
[10]; 300 ppm H2S from 30% blood loss to end of 40 minute bleed
  Complete recovery: 85.7% (6/7)
[10]; 15 minutes post bleed
  CO2 production (VCO2): 17 ± 3 mL/min/kg
[10]; End of bleed
  Blood CO2 content (pCO2): 35 +/− 6 mmHg
  Blood Lactate: 6.6 ± 1 mmol/L
  Blood base excess: -5 ± 4 mmol/L
  Blood bicarbonate content ([HCO3]): 21 ± 3 mmol/L
  Blood pH: 7.41 +/− 0.02
  CO2 production (VCO2): 16 ± 2 mL/min/kg
[10]; Mid-bleed
  CO2 production (VCO2): 20 ± 2 mL/min/kg
[10]; Pre-bleed
  Blood CO2 content (pCO2): 45 +/− 6 mmHg
  Blood Lactate: 1.4 ± 0.5 mmol/L
  Blood base excess: 8 ± 2 mmol/L
  Blood bicarbonate content ([HCO3]): 32 ± 3 mmol/L
  Blood pH: 7.46 +/− 0.03
  CO2 production (VCO2): 25 ± 4 mL/min/kg
[10]; after the end of the bleed, 300 ppm H2S
  Time to death of non-survivors: 174 min and 174 (1/7) min
[11]
  depression in metabolic rate, Mouse: Yes 0.01% (Evidence of depression in metabolic rate of greater than 5-fold as judged by carbon dioxide production or oxygen consumption during a 6-hour treatment is described by “Yes”)
